Source: US7300503B2, “Dye mixture and ink containing the same, inkjet recording method and image forming method” (Fujifilm Corporation, priority 2004, dated 2007)

Test: Color toner: light fastness of image
Type: physicochemical
Conditions: xenon light 85,000 lx, 5 days, dye remaining ratio
Protocol: A mixture of 3 parts by weight of each of the phthalocyanine compounds (Compounds 101, 102, 103 and 107) according to the invention and 100 parts by weight of a resin for toner (styrene-acrylate copolymer, trade name: Hymer TB-1000F, produced by Sanyo Chemical Industries, Ltd.) was pulverized in a ball mill and melt-blended by heating at 150° C. After cooling, the resulting solid was coarsely pulverized by a hammer mill and then finely pulverized by an air jet-type pulverizer. The particles were classified to select those having a particle size of 1 to 20 micrometer to prepare a toner. To 10 parts by weight of the toner, 900 parts by weight of carrier iron powder (trade name: FEV250/400, produced by Powdertech Co., Ltd.) was uniformly blended to prepare a developer. Each developer was prepared in the same manner as above except for using 3 parts by weight of dye or 6 parts by weight of pigment as a comparative coloring agent as shown in Table 7 below. Using the developer, duplicate was conducted by a dry type plain paper electrophotographic copying machine (trade name: NP-5000 produced by Canon Inc.).
For the evaluation, by the developer using the color toner containing the compound according to the invention, a reflection image and a transmission image were prepared on paper and OHP sheet according to the above-described image forming method, respectively. The evaluation was conducted in the following manner. A toner adhesion amount was in a range of 0.7±0.05 mg/cm^2 for the evaluation.
With the image formed, color tone and light fastness were evaluated. Regarding the color tone, the evaluation was visually conducted by a three-stage rating of best, good and poor. In Table 7, symbols ∘, Δ and × mean best color tone, good color tone and poor color tone, respectively. The light fastness was evaluated by measuring image density (Ci) just after the recording, irradiating the image with xenon light (85,000 1×) using Weatherometer (Atlas C. 165) for 5 days and then measuring again image density (Cf), and calculated a dye remaining ratio ([…]). The image density was measured by a reflection densitometer (X-Rite 310TR). In Table 7, symbols ∘, Δ and × mean the dye remaining ratio of 90% or more, the dye remaining ratio of less than 90% to 80% and the dye remaining ratio of less than 80%, respectively.
For `Cc1ccc(Nc2ccc(Nc3ccc(C)cc3)c3c2C(=O)c2c(Nc4ccc(C)cc4)ccc(Nc4ccc(C)cc4)c2C3=O)cc1` [Comparative Dye 4], the “Light Fastness” value was “Δ (the dye remaining ratio of less than 90% to 80%)”. With `CNc1ccc(O)c2c1C(=O)c1c(O)ccc(NC)c1C2=O` [Comparative Dye 3] the “Light Fastness” value was “Δ (the dye remaining ratio of less than 90% to 80%)”. With C.I. Solvent Blue 38 the “Light Fastness” value was “∘ (the dye remaining ratio of 90% or more)”. For C.I. Solvent Blue 70, the “Light Fastness” value was “∘ (the dye remaining ratio of 90% or more)”.
